Values quoted from earlier work as cited in US8088760B2, “Benzoxazole carboxamide inhibitors of poly(ADP-ribose)polymerase (PARP)” (BioMarin Pharmaceutical Inc., priority 2008, dated 2012).

Experiments:
[1] = tested on: BRCA2-deficient cell line V-C8; conditions: BRCA2-deficient cell line V-C8 compared with the BRCA2 wild type control
PARP-1 = PARP-1 (Homo sapiens, UniProt P09874); conditions: PARP-1 inhibitor
CAPAN-1 cells = CAPAN-1 cells maintained in DMEM supplemented with FCS (20% v/v), glutamine and antibiotics

PARP-1, sequence (P09874 whole entry, species assumed): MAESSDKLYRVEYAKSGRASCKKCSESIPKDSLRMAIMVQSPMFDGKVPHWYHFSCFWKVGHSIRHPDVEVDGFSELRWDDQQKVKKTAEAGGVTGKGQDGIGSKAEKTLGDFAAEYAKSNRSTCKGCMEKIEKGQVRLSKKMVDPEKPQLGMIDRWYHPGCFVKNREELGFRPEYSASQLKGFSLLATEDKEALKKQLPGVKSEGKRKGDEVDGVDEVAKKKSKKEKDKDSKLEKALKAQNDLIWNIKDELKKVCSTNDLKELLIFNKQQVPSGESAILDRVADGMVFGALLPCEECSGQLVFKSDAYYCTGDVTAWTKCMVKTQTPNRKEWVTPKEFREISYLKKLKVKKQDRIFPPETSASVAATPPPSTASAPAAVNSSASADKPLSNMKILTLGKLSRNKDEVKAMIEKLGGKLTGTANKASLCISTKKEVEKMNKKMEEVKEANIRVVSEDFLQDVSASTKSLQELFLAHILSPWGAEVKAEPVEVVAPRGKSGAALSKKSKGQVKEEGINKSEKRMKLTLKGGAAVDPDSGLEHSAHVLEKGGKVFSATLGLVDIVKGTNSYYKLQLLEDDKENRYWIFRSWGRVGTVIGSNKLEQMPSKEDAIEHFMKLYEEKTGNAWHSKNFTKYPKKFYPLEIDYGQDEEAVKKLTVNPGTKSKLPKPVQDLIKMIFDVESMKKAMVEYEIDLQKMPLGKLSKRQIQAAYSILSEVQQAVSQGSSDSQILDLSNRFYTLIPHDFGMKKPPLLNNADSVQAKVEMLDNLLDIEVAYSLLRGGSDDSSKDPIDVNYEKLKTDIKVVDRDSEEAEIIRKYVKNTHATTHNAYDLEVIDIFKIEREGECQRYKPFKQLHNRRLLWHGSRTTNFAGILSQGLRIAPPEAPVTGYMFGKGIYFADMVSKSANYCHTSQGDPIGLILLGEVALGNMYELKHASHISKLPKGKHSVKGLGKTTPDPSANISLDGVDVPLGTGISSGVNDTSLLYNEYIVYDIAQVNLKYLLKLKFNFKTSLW

## CN(C)Cc1ccc(-c2nc3cccc4c3n2CCNC4=O)cc1 [AG14361]
[1]
  sensitivity in clonogenic survival assay: exhibited sensitivity
PARP-1
  Ki: 5 nM

## O=C1CCC(=O)N1c1cc(Cc2n[nH]c(=O)c3ccccc23)ccc1F [KU0058684]
CAPAN-1 cells
  sensitivity in clonogenic survival assay: showing sensitivity to PARP inhibition
BRCA2-deficient tumors
  in vivo efficacy in blocking tumor growth: in vivo efficacy in blocking the growth of BRCA2-deficient tumors

## Cc1nc2c(O)cccc2c(=O)[nH]1 [NU1025]
[1]
  sensitivity in clonogenic survival assay: exhibited sensitivity
PARP-1
  Ki: 50 nM
